According to ChEMBL document CHEMBL1140853, “The stereochemistry of N-methyl and aryl substituents determine the biological activities of 3-aryl-8-methyl-8-azabicyclo[3.2.1]oct-2,3-enes” (Bioorg Med Chem, 2009):

Legend:
Homo sapiens [1] = organism: Homo sapiens; assay: Selectivity for human SERT over human NET
Homo sapiens [2] = organism: Homo sapiens; assay: Selectivity for human SERT over human DAT

Row | Compound | Ratio (Homo sapiens [1]) | Ratio (Homo sapiens [2])
1 | CN1C2C=C(c3ccc4c(c3)Cc3ccccc3-4)CC1CC2 (configuration not stated) | 232 | 52.2
2 | CN1C2C=C(C3c4ccccc4-c4ccccc43)CC1CC2 (configuration not stated) | 120 | 13.6
3 | CN1C2C=C(c3cccc4ccccc34)CC1CC2 (configuration not stated) | 94.4 | 11.6
4 | CN1C2C=C(c3cccc(-c4ccccc4)c3)CC1CC2 (configuration not stated) | 34 | 10.8
5 | CN1C2C=C(c3ccccc3-c3ccccc3)CC1CC2 (configuration not stated) | 3.8 | 5.4
6 | CN1C2C=C(c3c[nH]c4ccccc34)CC1CC2 (configuration not stated) | 54 | 8.3
